Experimental data taken from patent US4683301A, “Carbapenem antibiotics” (Bristol-Myers Company, priority 1984, dated 1987).
Values after ≈ are worked out from the molar mass of the structure shown. Read-outs that look alike come from different tables or passages of the source.

Key:
E. cloacae A-9659 [1] = assay: microbe, parasite or virus in culture; settings: Enterobacter cloacae, A9659
K. pneumoniae A20468 = assay: microbe, parasite or virus in culture; settings: Klebsiella pneumoniae
P. mirabilis A-9900 [2] = assay: Protective effect in the intramuscular treatment of infected mice; format: in vivo; settings: Proteus mirabilis, A9900, im, read-out: PD50/Treatment
Experimental: The PD50 (dose in mg/kg required to give protection to 50% of the infected mice) is indicated.
Treatment Schedule: Mice were treated i.m. with drugs 0 and 2 hours

[3] = Urinary recovery after intramuscular administration to mice; format: in vivo; settings: mouse, urine, im, 20 mg/kg, 20 mg/kg i.m., read-out: Urinary recovery, Percentage of Dose Recovered
Source text: | a single test; 4 mice per compound.

[4] = Blood levels in mice after intramuscular administration; format: in vivo; settings: mouse, im, 20 mg/kg i.m.
Source text: *t1/2refers to halflife in minutes
**AUC refers to the area under the curve

in vivo = settings: mouse
P. mirabilis A-9900 [5] = assay: microbe, parasite or virus in culture; settings: Proteus mirabilis, A9900
S. marcescens A20019 = assay: microbe, parasite or virus in culture; settings: Serratia marcescens
S. faecalis A20688 = assay: In vitro MIC, tube dilution in Nutrient Broth, overnight at 37° C.; format: cell-based; settings: Enterococcus faecalis
P. vulgaris A21559 [6] = assay: as above; format: cell-based; settings: Proteus vulgaris
S. aureus A-9537 = assay: as above; format: cell-based; settings: Staphylococcus aureus
H. influenzae A-9833 = assay: as above; format: cell-based; settings: Haemophilus influenzae, A9833
[7] = system: S. aureus A-9606 (Pen-res.); assay: as above; format: cell-based; settings: Staphylococcus aureus
H. influenzae A21522 = assay: as above; format: cell-based; settings: Haemophilus influenzae
E. coli A15119 [8] = assay: as above; format: cell-based; settings: Escherichia coli
B. fragilis A22862 = assay: as above; format: cell-based; settings: Bacteroides fragilis
B. fragilis A22053 = assay: microbe, parasite or virus in culture; settings: Bacteroides fragilis
H. influenzae A20178 = assay: In vitro MIC, tube dilution in Nutrient Broth, overnight at 37° C.; format: cell-based; settings: Haemophilus influenzae
[9] = system: S. aureus A15097 (Meth-res.); assay: microbe, parasite or virus in culture; format: cell-based; settings: Staphylococcus aureus
K. pneumoniae A-9664 [10] = assay: microbe, parasite or virus in culture; settings: Klebsiella pneumoniae, A9664
S. pneumoniae A-9585 = assay: In vitro MIC, tube dilution in Nutrient Broth, overnight at 37° C.; format: cell-based; settings: Streptococcus pneumoniae, A9585
S. pyogenes A-9604 = assay: as above; format: cell-based; settings: Streptococcus pyogenes, A9604
E. coli A20341-1 = assay: as above; format: cell-based
P. aeruginosa A20481 = assay: Protective effect in the intramuscular treatment of infected mice; format: in vivo; settings: Pseudomonas aeruginosa, A20481, im; i.m., challenge 3 × 10^4 organisms, treated 0 and 2 h postinfection; read-out: PD50/Treatment
Experimental: (§1) 3.5 hours (all others); 5 mice were used in each test.

S. marcescens A20335 = assay: as above; format: in vivo; settings: Serratia marcescens, A20335, im; i.m., challenge 9 × 10^6 organisms, treated 1 and 3.5 h postinfection; read-out: PD50/Treatment
Experimental: as §1

K. pneumoniae A-9664 [11] = assay: as above; format: in vivo; settings: Klebsiella pneumoniae, A9664, im; i.m., challenge 7 × 10^6 organisms, treated 1 and 3.5 h postinfection; read-out: PD50/Treatment
Experimental: as §1

P. rettgeri A15167-2 = assay: as above; format: in vivo; settings: Providencia rettgeri, A151672, im, read-out: PD50/Treatment
Experimental: as §1

E. cloacae A-9659 [12] = assay: as above; format: in vivo; settings: Enterobacter cloacae, A9659, im; i.m., challenge 4 × 10^6 organisms, treated 1 and 3.5 h postinfection; read-out: PD50/Treatment
Experimental: as §1

P. aeruginosa A-9843a [13] = assay: as above; format: in vivo; settings: Pseudomonas aeruginosa, A9843A, im, challenge 3 × 10^4 organisms, treated 0 and 2 h postinfection; read-out: PD50/Treatment
Experimental: as §1

E. coli A15119 [14] = assay: as above; format: in vivo; settings: Escherichia coli, A15119, im; i.m., challenge 6 × 10^6 organisms, treated 1 and 3.5 h postinfection; read-out: PD50/Treatment
Experimental: as §1

M. morganii A15149 = assay: as above; format: in vivo; settings: Morganella morganii, A15149, im; i.m., challenge 7 × 10^5 organisms, treated 1 and 3.5 h postinfection; read-out: PD50/Treatment
Experimental: as §1

S. aureus A-9606 = assay: as above; format: in vivo; settings: Staphylococcus aureus, A9606, im; i.m., challenge 1 × 10^9 organisms, treated 1 and 3.5 h postinfection; read-out: PD50/Treatment
Experimental: as §1

P. vulgaris A21559 [15] = assay: as above; format: in vivo; settings: Proteus vulgaris, A21559, im; i.m., challenge 4 × 10^5 organisms, treated 0 and 2 h postinfection; read-out: PD50/Treatment
Experimental: as §1

P. aeruginosa A20599 = assay: as above; format: in vivo; settings: Pseudomonas aeruginosa, A20599, im; i.m., challenge 9 × 10^4 organisms, treated 0 and 2 h postinfection; read-out: PD50/Treatment
Experimental: as §1

P. morganii A15153 = assay: microbe, parasite or virus in culture; settings: Morganella morganii
E. cloacae A-9656 = assay: microbe, parasite or virus in culture; settings: Enterobacter cloacae, A9656
[16] = Toxicity after intracranial administration to mice; settings: mouse, in vivo
P. aeruginosa A-9843A [17] = assay: In vitro MIC, tube dilution in Nutrient Broth, overnight at 37° C.; format: cell-based; settings: Pseudomonas aeruginosa, A9843A
H. influenzae A21518 = assay: as above; format: cell-based; settings: Haemophilus influenzae
B. fragilis A22863 = assay: microbe, parasite or virus in culture; settings: Bacteroides fragilis
Pseudomonas species = settings: in words; prior art; cited from earlier work

C[C@@H](O)[C@H]1C(=O)N2C(C(=O)[O-])=C(SCC[S+]3CCCC3)C[C@H]12 [Example 1, 3-[2-(1-tetrahydrothiophenium)ethylthio]-6α-[1-(R)-hydroxyethyl]-7-oxo-1-azabicyclo[3.2.0]hept-2-ene-2-carboxylate]
MIC (E. cloacae A-9659 [1]): 0.13 µg/mL (≈ 0.378 µM)
MIC (K. pneumoniae A20468): 0.13 µg/mL (≈ 0.378 µM)
ED50 (P. mirabilis A-9900 [2]): 7.7 mg/kg
dose excreted at 3 h ([3]; 0-3 hours): 15.6%
dose excreted at 24 h ([3]; 0-24 hours): 17.7 ± 2.9%
dose excreted at 6 h ([3]; 3-6 hours): 2.1%
dose excreted at 24 h ([3]; 6-24 hours): < 0.2%
AUC [4]: 7400 ng·h/mL
half-life [4]: 9 min
NOAEL (in vivo): ~5 mg/kg
MIC (P. mirabilis A-9900 [5]): 0.13 µg/mL (≈ 0.378 µM)
MIC (S. marcescens A20019): 0.06 µg/mL (≈ 0.175 µM)
MIC (S. faecalis A20688): 0.5 µg/mL (≈ 1.46 µM)
MIC (P. vulgaris A21559 [6]): 0.03 µg/mL (≈ 0.0873 µM)
MIC (S. aureus A-9537; A9537, S. aureus A-9537): 0.008 µg/mL (≈ 0.0233 µM)
MIC (S. aureus A-9537; A9537, S. aureus A-9537 +50% serum): 0.03 µg/mL (≈ 0.0873 µM)
MIC (H. influenzae A-9833): 8 µg/mL (≈ 23.3 µM)
MIC [7]: 0.016 µg/mL (≈ 0.0466 µM)
MIC (H. influenzae A21522): 8 µg/mL (≈ 23.3 µM)
MIC (E. coli A15119 [8]; A15119, E. coli A15119 (10^-2)): 0.06 µg/mL (≈ 0.175 µM)
MIC (E. coli A15119 [8]; A15119, E. coli A15119 (10^-3)): 0.06 µg/mL (≈ 0.175 µM)
MIC (E. coli A15119 [8]; E. coli A15119 (10^-4 dil.), read-out: MIC): 0.03 µg/mL (≈ 0.0873 µM)
MIC (B. fragilis A22862): 0.06 µg/mL (≈ 0.175 µM)
MIC (B. fragilis A22053): 0.06 µg/mL (≈ 0.175 µM)
MIC (H. influenzae A20178): 8 µg/mL (≈ 23.3 µM)
MIC [9]: 2 µg/mL (≈ 5.82 µM)
MIC (K. pneumoniae A-9664 [10]): 0.06 µg/mL (≈ 0.175 µM)
MIC (S. pneumoniae A-9585): 0.002 µg/mL (≈ 0.00582 µM)
MIC (S. pyogenes A-9604): 0.004 µg/mL (≈ 0.0116 µM)
MIC (E. coli A20341-1; E. coli A20341-1 (10^-3)): 0.03 µg/mL (≈ 0.0873 µM)
MIC (E. coli A20341-1; Escherichia coli, A203411, E. coli A20341-1 (10^-2)): 0.06 µg/mL (≈ 0.175 µM)
MIC (E. coli A20341-1; Escherichia coli, A203411, E. coli A20341-1 (10^-4), read-out: MIC): 0.03 µg/mL (≈ 0.0873 µM)
ED50 (P. aeruginosa A20481): 0.8 mg/kg
ED50 (S. marcescens A20335): 5 mg/kg
ED50 (K. pneumoniae A-9664 [11]): 5 mg/kg
ED50 (P. rettgeri A15167-2): 8.7 mg/kg
ED50 (E. cloacae A-9659 [12]): 1.3 mg/kg
ED50 (P. aeruginosa A-9843a [13]): 0.6 mg/kg
ED50 (E. coli A15119 [14]): 1.6 mg/kg
ED50 (M. morganii A15149): 3.3 mg/kg
ED50 (S. aureus A-9606): 0.19 mg/kg
ED50 (P. vulgaris A21559 [15]): 3.3 mg/kg
ED50 (P. aeruginosa A20599): 1.3 mg/kg
MIC (P. morganii A15153): 0.06 µg/mL (≈ 0.175 µM)
MIC (E. cloacae A-9656): 0.13 µg/mL (≈ 0.378 µM)
LD50 [16]: > 40 mg/kg
MIC (P. aeruginosa A-9843A [17]): 1 µg/mL (≈ 2.91 µM)
MIC (H. influenzae A21518): 8 µg/mL (≈ 23.3 µM)
MIC (B. fragilis A22863): 0.06 µg/mL (≈ 0.175 µM)

C[C@@H](O)[C@H]1C(=O)N2C(C(=O)O)=C(SCCN)C[C@H]12 [thienamycin]
activity against various Pseudomonas species (Pseudomonas species): notable activity
